# Literature values in patent US8865753B2, “Compounds as cannabinoid receptor ligands” (priority 2007, dated 2014).
# Legend:
# microglial = conditions: in vitro; Ramirez et al. 2005
# rodent = rodent models of neuropathic, incisional, and both chronic and acute inflammatory pain
# rat = rat formalin model of persistent pain; Hanus et al. 1999
# animal models = animal models of acute thermal pain, persistent pain, inflammatory pain and neuropathic pain
# [1] = test system: apolipoprotein E knockout mice; conditions: Steffens et al. 2005
# mice = conditions: model for post-menopausal osteoporosis, Ralston et al. 2005
# osteoclast = conditions: Ralston et al. 2005
molecule,measurement,setting,value
CCCC(C)(C)c1ccc2c(c1)OC(C)(C)[C@@H]1CC=C(C)C[C@@H]21 [JWH-133],β-amyloid-induced microglial activation and neurotoxicity,microglial,abrogated
COc1ccc2c(c1)c(CCN1CCOCC1)c(C)n2C(=O)c1cccc(Cl)c1Cl [GW405833],efficacy in pain models,rodent,efficacious
CCCCCCC(C)(C)c1cc(OC)c([C@@H]2C=C(CO)[C@@H]3C[C@H]2C3(C)C)c(OC)c1 [HU-308],antinociceptive response,rat,elicits an antinociceptive response
CN1CCCCC1Cn1cc(C(=O)c2cc([N+](=O)[O-])ccc2I)c2ccccc21 (stereo not drawn) [AM-1241],analgesic efficacy,animal models,robust analgesic efficacy
(−)-Δ^9-Tetrahydrocannabinol [THC],progression of atherosclerotic lesions,[1]; low doses,slowed the progression of atherosclerotic lesions
SR144528,ovariectomy-induced bone loss,mice,reverse ovariectomy-induced bone loss
same,osteoclast activity,osteoclast,inhibit osteoclast activity
same,blockade of the effects of JWH-133,microglial,blocked
same,inhibition of the effects of THC on atherosclerotic lesions,[1],inhibited
